Measured values from ChEMBL document CHEMBL1131942, “(3-substituted benzyl)thiazolidine-2,4-diones as structurally new antihyperglycemic agents” (Bioorg Med Chem Lett, 1999).

Columns and labels:
Format in all cases: functional
Mus musculus [1] = experiment: Antihyperglycemic activity was determined in obese (ob/ob) mice by po administration at a dose of 10 mg/kg
Mus musculus [2] = experiment: Antihyperglycemic activity in obese mice(ob/ob) at 1 mg/kg peroral administration; settings: route oral
Mus musculus [3] = experiment: Antihyperglycemic activity in obese mice(ob/ob) at 3 mg/kg peroral administration; settings: route oral
Mus musculus [4] = experiment: In vivo decrease in glucose in obese mice(ob/ob) at 10 mg/kg/day peroral administration for 2 weeks; settings: route oral
Mus musculus [5] = experiment: In vivo decrease in glucose in obese mice(ob/ob) by 10 mg/kg/day peroral administration for 2 weeks; settings: route oral
Mus musculus [6] = experiment: In vivo decrease in insulin in obese mice(ob/ob) at 10 mg/kg/day peroral administration for 2 weeks; settings: route oral
Mus musculus [7] = experiment: In vivo decrease in insulin in obese mice(ob/ob) at 3 mg/kg/day peroral administration for 2 weeks; settings: route oral
Mus musculus [8] = experiment: In vivo decrease in triglyceride in obese mice(ob/ob) by 3 mg/kg/day peroral administration for 2 weeks; settings: route oral
Mus musculus [9] = experiment: In vivo decrease in glucose in obese mice(ob/ob) at 3 mg/kg/day peroral administration for 2 weeks; settings: route oral
Mus musculus [10] = experiment: In vivo decrease in triglyceride in obese mice(ob/ob) by 0.3 mg/kg/day peroral administration for 2 weeks; settings: route oral
Mus musculus [11] = experiment: In vivo decrease in insulin in obese mice(ob/ob) at 1 mg/kg/day peroral administration for 2 weeks; settings: route oral
Mus musculus [12] = experiment: In vivo decrease in glucose in obese mice(ob/ob) by 1 mg/kg/day peroral administration for 2 weeks; settings: route oral
Mus musculus [13] = experiment: In vivo decrease in insulin in obese mice(ob/ob) at 0.3 mg/kg/day peroral administration for 2 weeks; settings: route oral
Mus musculus [14] = experiment: In vivo decrease in glucose in obese mice(ob/ob) by 0.3 mg/kg/day peroral administration for 2 weeks; settings: route oral
Mus musculus [15] = experiment: In vivo decrease in glucose in obese mice(ob/ob) at 1 mg/kg/day peroral administration for 2 weeks; settings: route oral

COc1ccc(CC2SC(=O)NC2=O)cc1C(=O)NCc1cccc(C(F)(F)F)c1 (configuration not stated)
Decrease in blood glucose (Mus musculus [1]): 41%

COc1ccc(CC2SC(=O)NC2=O)cc1C(=O)Nc1ccc(C(C)(C)C)cc1 (configuration not stated)
Decrease in blood glucose (Mus musculus [1]): 17%

Cc1ccc(CC2SC(=O)NC2=O)cc1C(=O)NCc1ccc(C(F)(F)F)cc1 (configuration not stated)
Decrease in blood glucose (Mus musculus [1]): 16%

COc1ccc(CCC2SC(=O)NC2=O)cc1C(=O)NCc1ccc(C(F)(F)F)cc1 (configuration not stated)
Decrease in blood glucose (Mus musculus [2]): 15%
Decrease in blood glucose (Mus musculus [3]): 20%
Decrease in blood glucose (Mus musculus [1]): 43%

COc1ccc(C(=O)NCc2ccc(C(F)(F)F)cc2)cc1CC1SC(=O)NC1=O (configuration not stated)
Decrease in blood glucose (Mus musculus [1]): 3%

O=C1NC(=O)C(Cc2ccc(F)c(C(=O)NCc3ccc(C(F)(F)F)cc3)c2)S1 (configuration not stated)
Decrease in blood glucose (Mus musculus [1]): 50%

Cc1c(C)c2c(c(C)c1O)CCC(C)(COc1ccc(CC3SC(=O)NC3=O)cc1)O2 (configuration not stated) [TROGLITAZONE]
Decrease in blood glucose (Mus musculus [1]): 9%

COc1ccc(CCCC2SC(=O)NC2=O)cc1C(=O)NCc1ccc(C(F)(F)F)cc1 (configuration not stated)
Decrease in blood glucose (Mus musculus [2]): 10%
Decrease in blood glucose (Mus musculus [3]): 29%
Decrease in blood glucose (Mus musculus [1]): 39%

COc1ccc(CC2SC(=O)NC2=O)cc1C(=O)NCc1ccc(OC(F)(F)F)cc1 (configuration not stated)
Decrease in blood glucose (Mus musculus [1]): 34%

COc1ccc(CC2SC(=O)NC2=O)cc1C(=O)NCCc1ccc(C(F)(F)F)cc1 (configuration not stated)
Decrease in blood glucose (Mus musculus [1]): 3%

CCOc1ccc(CC2SC(=O)NC2=O)cc1C(=O)NCc1ccc(C(F)(F)F)cc1 (configuration not stated)
Decrease in blood glucose (Mus musculus [1]): 34%

COc1ccc(CC2SC(=O)NC2=O)cc1C(=O)NCc1ccccc1 (configuration not stated)
Decrease in blood glucose (Mus musculus [2]): 19%
Decrease in blood glucose (Mus musculus [3]): 31%
Decrease in blood glucose (Mus musculus [1]): 37%

CCc1ccc(CCOc2ccc(CC3SC(=O)NC3=O)cc2)nc1 (configuration not stated) [PIOGLITAZONE]
Rate of decrease (Mus musculus [4]): 75%
Rate of decrease (Mus musculus [5]): 99%
Rate of decrease (Mus musculus [6]): 41%
Rate of decrease (Mus musculus [7]): 43%
Rate of decrease (Mus musculus [8]): 85%
Rate of decrease (Mus musculus [9]): 64%
Decrease in blood glucose (Mus musculus [1]): 14%

COc1ccc(CC2SC(=O)NC2=O)cc1C(=O)NCc1ccc(C(F)(F)F)cc1 (configuration not stated)
Rate of decrease (Mus musculus [4]): 100%
Rate of decrease (Mus musculus [10]): 67%
Decrease in blood glucose (Mus musculus [2]): 35%
Rate of decrease (Mus musculus [5]): 130%
Rate of decrease (Mus musculus [11]): 59%
Rate of decrease (Mus musculus [6]): 87%
Decrease in blood glucose (Mus musculus [3]): 53%
Rate of decrease (Mus musculus [12]): 80%
Rate of decrease (Mus musculus [13]): 55%
Rate of decrease (Mus musculus [7]): 83%
Rate of decrease (Mus musculus [14]): 77%
Rate of decrease (Mus musculus [8]): 122%
Rate of decrease (Mus musculus [15]): 78%
Rate of decrease (Mus musculus [9]): 95%
Decrease in blood glucose (Mus musculus [1]): 58%

COc1ccc(CNC(=O)c2cc(CC3SC(=O)NC3=O)ccc2OC)cc1OC (configuration not stated)
Decrease in blood glucose (Mus musculus [1]): 30%

COc1ccc(C2SC(=O)NC2=O)cc1C(=O)NCc1ccc(C(F)(F)F)cc1 (configuration not stated)
Decrease in blood glucose (Mus musculus [2]): 27%
Decrease in blood glucose (Mus musculus [3]): 36%
Decrease in blood glucose (Mus musculus [1]): 48%

COc1ccc(CC2SC(=O)NC2=O)cc1C(=O)NCc1ccc(N(C)C)cc1 (configuration not stated)
Decrease in blood glucose (Mus musculus [1]): 12%

O=C1NC(=O)C(Cc2ccc(O)c(C(=O)NCc3ccc(C(F)(F)F)cc3)c2)S1 (configuration not stated)
Decrease in blood glucose (Mus musculus [2]): 7%
Decrease in blood glucose (Mus musculus [3]): 12%
Decrease in blood glucose (Mus musculus [1]): 34%

COc1ccc(CC2SC(=O)NC2=O)cc1C(=O)NCc1ccccc1C(F)(F)F (configuration not stated)
Decrease in blood glucose (Mus musculus [1]): 4%

CC(C)Oc1ccc(CC2SC(=O)NC2=O)cc1C(=O)NCc1ccc(C(F)(F)F)cc1 (configuration not stated)
Decrease in blood glucose (Mus musculus [1]): 45%

COc1ccc(CC2SC(=O)NC2=O)cc1C(=O)NCc1ccc(F)cc1 (configuration not stated)
Decrease in blood glucose (Mus musculus [1]): 28%

CCN(Cc1ccc(C(F)(F)F)cc1)C(=O)c1cc(CC2SC(=O)NC2=O)ccc1OC (configuration not stated)
Decrease in blood glucose (Mus musculus [1]): 31%

COc1ccc(CC2SC(=O)NC2=O)cc1C(=O)NCc1ccc(C)cc1 (configuration not stated)
Decrease in blood glucose (Mus musculus [1]): 30%

COc1c(CC2SC(=O)NC2=O)cccc1C(=O)NCc1ccc(C(F)(F)F)cc1 (configuration not stated)
Decrease in blood glucose (Mus musculus [1]): 0%

COc1ccc(CC2SC(=O)NC2=O)cc1C(=O)NCc1cc(C(F)(F)F)cc(C(F)(F)F)c1 (configuration not stated)
Decrease in blood glucose (Mus musculus [1]): 30%

COc1ccc(CC2SC(=O)NC2=O)cc1C(=O)NCc1ccc(C(C)(C)C)cc1 (configuration not stated)
Decrease in blood glucose (Mus musculus [1]): 5%

COc1ccc(CNC(=O)c2cc(CC3SC(=O)NC3=O)ccc2OC)cc1 (configuration not stated)
Decrease in blood glucose (Mus musculus [1]): 21%
